SMILES strings stand for the structures. Values after ≈ are worked out from the molar mass of the structure shown. Active and inactive are the calls of the source.

The subject of data set [1] is Enterococcus faecalis. As to the kind of experiment: Antibacterial activity against vancomycin-resistant Enterococcus faecalis ATCC51299 infected in female Kunming mouse model of abdominal infection assessed as decrease in inflammatory cell infiltration at 4 mg/kg administered daily pre-infected for 12 hrs followed by compound administration for 3 days. The data set is classed as functional, organism-based. Particulars: time 3.0 day.

The subject of data set [2] is Staphylococcus aureus. Put plainly: Antibiofilm activity in methicillin-resistant Staphylococcus aureus assessed as increase in biofilm destruction incubated for 24 hrs by crystal violet staining based analysis. It is filed as functional, organism-based.
The subject of data set [3] is Enterococcus faecalis. Put plainly: Antimicrobial activity against vancomycin-resistant Enterococcus faecalis ATCC51299 assessed as increase in cell membrane fluidity at upto 4 times MIC incubated for 35 mins by Laurdan-GP dye based spectramax gemini XPS microplate reader analysis. The data set is classed as functional, organism-based.
The subject of data set [4] is Enterococcus faecalis. As to the kind of experiment: Antibacterial activity against vancomycin-resistant Enterococcus faecalis ATCC51299 infected in female Kunming mouse model of abdominal infection assessed as decrease in granulocytes at 4 mg/kg administered daily pre-infected for 12 hrs followed by compound administration for 3 days. Particulars: time 3.0 day. It is filed as functional, organism-based.

Data set [5] has as its system Staphylococcus aureus. As to the kind of experiment: Antibacterial activity against methicillin-resistant Staphylococcus aureus measured after 24 hrs by CLSI based broth microdilution method. The data set is classed as functional. Background: In broth dilution the organism is exposed to a series of concentrations in liquid medium.
The test system of data set [6] is Enterococcus faecalis. Put plainly: Antibacterial activity against vancomycin-resistant Enterococcus faecalis ATCC51299 infected in female Kunming mouse model of abdominal infection assessed as decrease in bacterial load in spleen at 4 mg/kg administered daily pre-infected for 12 hrs followed by compound administration for 3 days. It is filed as functional, organism-based. Particulars: time 3.0 day.

Data set [7] has as its system Enterococcus faecalis. As to the kind of experiment: Antibacterial activity against vancomycin-resistant Enterococcus faecalis ATCC51299 infected in female Kunming mouse model of abdominal infection assessed as decrease in bacterial load in peritoneal effusion at 4 mg/kg administered daily pre-infected for 12 hrs followed by compound administration for 3 days. The data set is classed as functional, organism-based. Particulars: time 3.0 day.

The subject of data set [8] is Enterococcus faecalis. Put plainly: Antibiofilm activity in vancomycin-resistant Enterococcus faecalis ATCC51299 assessed as increase in biofilm destruction at 1 times MIC incubated for 24 hrs by crystal violet staining based analysis relative to control. The data set is classed as functional.
Data set [9] deals with Staphylococcus aureus. Put plainly: Bactericidal activity against methicillin-resistant Staphylococcus aureus assessed as reduction in number of bacteria at 2 times MIC measured within 15 mins by time-kill assay. The data set is classed as functional, organism-based.
Data set [10] concerns Staphylococcus aureus. Put plainly: Bactericidal activity against methicillin-resistant Staphylococcus aureus measured after 24 hrs by CLSI based broth microdilution method. It is filed as functional.
The subject of data set [11] is Staphylococcus aureus. Put plainly: Antibiofilm activity in methicillin-resistant Staphylococcus aureus assessed as increase in biofilm destruction at 1 times MIC incubated for 24 hrs by crystal violet staining based analysis relative to control. The data set is classed as functional.
Data set [12] deals with Enterococcus faecalis. As to the kind of experiment: Antibacterial activity against vancomycin-resistant Enterococcus faecalis ATCC51299 infected in female Kunming mouse model of abdominal infection assessed as decrease in bacterial load in liver at 4 mg/kg administered daily pre-infected for 12 hrs followed by compound administration for 3 days. It is filed as functional, organism-based. As to conditions: time 3.0 day.

Data set [13] relates to Enterococcus faecalis. Put plainly: Antibacterial activity against vancomycin-resistant Enterococcus faecalis ATCC51299 measured after 20 passages by broth microdilution method. The data set is classed as functional, organism-based.
The test system of data set [14] is Enterococcus faecalis. As to the kind of experiment: Antibacterial activity against vancomycin-resistant Enterococcus faecalis ATCC51299 infected in female Kunming mouse model of abdominal infection assessed as decrease in bacterial load in kidney at 4 mg/kg administered daily pre-infected for 12 hrs followed by compound administration for 3 days. It is filed as functional, organism-based. Particulars: time 3.0 day.

Data set [15] deals with Enterococcus faecalis. Put plainly: Antibacterial activity against vancomycin-resistant Enterococcus faecalis ATCC51299 infected in female Kunming mouse model of abdominal infection assessed as watery degeneration of hepatocytes at 4 mg/kg administered daily pre-infected for 12 hrs followed by compound administration for 3 days. The data set is classed as functional, organism-based. As to conditions: time 3.0 day.

Data set [16] has as its system Enterococcus faecalis. As to the kind of experiment: Bactericidal activity against vancomycin-resistant Enterococcus faecalis ATCC51299 assessed as reduction in number of bacteria at 1 time MIC measured within 40 mins by time-kill assay. The data set is classed as functional, organism-based.
Data set [17] in a line: Toxicity in Kunming mouse assessed as morphological abnormalities at 4 mg/kg administered daily and measured after 7 days. It is filed as organism-based. Particulars: in vivo, 168 h, time 7 day.
Data set [18] has as its system Staphylococcus aureus. As to the kind of experiment: Antibacterial activity against methicillin resistant Staphylococcus aureus infected in female Kunming mouse model of skin infection assessed as reduction in wound size at 4 mg/kg administered daily pre-infected for 4 hrs followed by compound administration for 7 days. Particulars: time 7.0 day. It is filed as functional, organism-based.

The test system of data set [19] is Staphylococcus aureus. Put plainly: Antibacterial activity against methicillin resistant Staphylococcus aureus infected in female Kunming mouse model of skin infection assessed as suppression of purulent secretion at 4 mg/kg administered daily pre-infected for 4 hrs followed by compound administration for 7 days. The data set is classed as functional, organism-based. As to conditions: time 7.0 day.

Data set [20] deals with Staphylococcus aureus. Put plainly: Antibacterial activity against methicillin resistant Staphylococcus aureus infected in female Kunming mouse model of skin infection assessed as reduction in inflammatory cell infiltration at 4 mg/kg administered daily pre-infected for 4 hrs followed by compound administration for 7 days. As to conditions: time 7.0 day. The data set is classed as functional, organism-based.

The test system of data set [21] is Staphylococcus aureus. As to the kind of experiment: Antibacterial activity against methicillin resistant Staphylococcus aureus infected in female Kunming mouse model of skin infection assessed as increase in neovascularization at 4 mg/kg administered daily pre-infected for 4 hrs followed by compound administration for 7 days. It is filed as functional, organism-based. As to conditions: time 7.0 day.

Data set [22] deals with Staphylococcus aureus. Put plainly: Antibacterial activity against methicillin resistant Staphylococcus aureus infected in female Kunming mouse model of skin infection assessed as reduction in bacterial load of wound at 4 mg/kg administered daily pre-infected for 4 hrs followed by compound administration for 7 days. The data set is classed as functional, organism-based. As to conditions: time 7.0 day.

Consider `C=CCCCCCCCCCCCc1cc(O)cc(O)c1`, for which the outcome in data set [1], in data set [3], in data set [4], in data set [5], in data set [6] and in data set [7] was Active. For the same compound, the outcome in [9], in data set [12], in data set [14], in data set [15] and in [16] was Active. In addition, the results for the Activity entry in data set [2], in [8] and in [11] were “Dose-Dependent Effect”, >50% and >50%, respectively. The minimal inhibitory concentration (MIC) (commonly the smallest concentration in the dilution series that meets the test's criterion for growth inhibition) in [5] worked out at 4 µg/mL (≈ 13.8 µM). Also, the minimal bactericidal concentration (MBC) (as a rule, the smallest concentration meeting the test's criterion for killing) in data set [10] is 4 µg/mL (≈ 13.8 µM). The outcome in [13] was inactive.
Take `C=CCCCCCCCCCCCc1cc(O)cc(O)c1C(=O)O`: the Activity result in [17] was “Non-Toxic”; in data set [2] it was “Dose-Dependent Effect”. Also, the result in data set [18], in [3], in [5], in [19], in data set [9] and in data set [20] was Active. In addition, the result in data set [21], in [22] and in data set [16] was Active. The compound further registered an MIC in data set [5] of 4 µg/mL (≈ 12 µM). For the same compound, the MBC in data set [10] was found to be 4 µg/mL (≈ 12 µM). In addition, in data set [13], the result was inactive.

The values are drawn from ChEMBL document CHEMBL6071135, “New resorcylic acid derivatives of Lysimachia tengyuehensis against MRSA and VRE by interfering with bacterial metabolic imbalance” (Eur J Med Chem, 2024).
